Assay: Human HepG2 cell viability assay in 384 well format
Format: toxicity, cell-based
Parameters: dose 125 nL, time 70.5 hour; concentration not given beside the values
Details: HepG2 cells, read-out: Inhibition

Row | Compound | cytotoxicity at 70.5 h
1 | COc1cccc2c3c(c(=O)[nH]c12)CCC(C)(C)O3 | -5.31%
2 | NS(=O)(=O)c1cccnc1Nc1c(Cl)cccc1Cl | 14%
3 | O=c1ncn(-c2ccc(F)cc2)c2ncccc12 | -6.86%
4 | Cn1c(=O)c2c(n3ncnc13)NC(=O)CC2c1cccc(F)c1 (configuration not stated) | -11.8%
5 | Cc1ccc2c(c1)Oc1ncccc1C(=O)N2 | -0.446%
6 | Cc1ccccc1CNC(=O)N1C[C@H]2C[C@H](C(=O)N(C)C)[C@@H](C1)O2 | -5.69%
7 | O=C(C[C@H]1[C@H]2CN(C(=O)Cc3ccccn3)C[C@@H]12)Nc1cccnc1 | -1.03%
8 | CS(=O)(=O)N1CCN(C(=O)c2cccc(Cl)c2)CC2(CNC(=O)C2)C1 (configuration not stated) | -0.473%
9 | CC(C)C(=O)N1CCc2nc(C(=O)Nc3cccnc3)sc2CC1 | -2.65%
10 | COCC(=O)N1CCc2nc(C(=O)Nc3cccnc3)sc2CC1 | -2.18%
11 | Cc1ccc(N2CC[C@@H]3[C@@H](CO[C@H]3CNC(=O)c3ccco3)C2)nn1 | -1.79%
12 | Cc1cc(C(=O)N2CCC3(CC2)C(=O)NCCN3CC(C)C)c(C)o1 | -2.92%
13 | Cc1[nH]/c(=N/C(=O)Cn2nc(N3CCOCC3)ccc2=O)sc1C | -6.43%
14 | CCOC(=O)N1CCN(C(=O)c2snnc2-c2ccccc2)CC1 | -9.63%
15 | Cc1ccc(Cn2c(=O)[nH]c3cccnc3c2=O)cc1 | -8.02%
16 | CCN1CCc2c(sc3c2C(=O)NC(/C=C\c2ccccc2)N3)C1 (configuration not stated) | 16.4%
17 | Cn1c(=O)c2sccc2n(CC(=O)Nc2cccc(Cl)c2)c1=O | 8.96%
18 | CC(C)c1cccc(NC(=O)Cn2c(=O)n(C)c(=O)c3sccc32)c1 | 5.39%
19 | Nc1ncccc1C(=O)NCc1cccc(Br)c1 | 13.7%
20 | Cc1cccc(CNC(=O)c2cccnc2N)c1 | 18%
21 | NC1CCN(c2nccn3c(=O)[nH]nc23)CC1 | 22.8%
22 | COc1ccc(-c2ccnc3nc(N4CCCCC4)[nH]c(=O)c23)cc1 | -9.32%
23 | O=c1[nH]c(N2CCCCC2)nc2nccc(-c3ccc4c(c3)OCO4)c12 | -12.9%

Row | Compound | cytotoxicity at 70.5 h
24 | COc1ccc(-c2ccnc3nc(N4CCCC4)[nH]c(=O)c23)cc1OC | -9.78%
25 | COc1cccc(-c2ccnc3nc(N4CCCCC4)[nH]c(=O)c23)c1 | 17.7%
26 | O=C(CC1Cn2ncnc2NC1=O)Nc1ccccc1 (configuration not stated) | -8.16%
27 | CCOCCCNC(=O)CN(c1ccc(C)c(C)c1)S(C)(=O)=O | -9.65%
28 | CC(C)NC(=O)c1ccc2c(c1)nc1n2CCN(Cc2ccccc2)C1 | -12.9%
29 | O=C1CSC(c2ccncc2)c2c[nH]nc2N1 (configuration not stated) | -8.06%
30 | O=C1CSC(c2ccc3c(c2)OCO3)c2cn[nH]c2N1 (configuration not stated) | -4%
31 | CCOc1ccc(C2SCC(=O)Nc3c2c(=O)[nH]n3C(C)C)cc1 (configuration not stated) | -11.8%
32 | CCOCCCNC(=O)CN(c1ccc(F)c(F)c1)S(C)(=O)=O | -12.9%
33 | CN1CCc2c(sc3c2C(=O)NC(/C=C/c2ccccc2)N3)C1 (configuration not stated) | -11.3%
34 | CCOC(=O)c1ccc(NC(=O)c2c(O)nc3c(c2O)CCCC3)cc1 | -10.8%
35 | CC(C)n1[nH]c(=O)c2c1NC(=O)CSC2c1ccc(OCC(N)=O)cc1 (configuration not stated) | -11.1%
36 | CC(C)COc1ccc(C2SCC(=O)Nc3c2c(=O)[nH]n3C(C)C)cc1 (configuration not stated) | -4.59%
37 | O=C(Cn1nc2c(cc1=O)CCCC2)NC(Cc1ccccc1)C(=O)O (configuration not stated) | -10.7%
38 | Cc1cccc(NC(=O)Cc2cnc3n(C)c(=O)[nH]c(=O)n23)c1 | 22.4%
39 | Cn1c(=O)[nH]c(=O)n2c(CC(=O)Nc3ccccc3)cnc12 | -15.7%
40 | COCCNC(=O)C1CCCN(c2ccc3nncn3n2)C1 (configuration not stated) | 9.49%
41 | CCOC(=O)Cn1c(=O)nc2n1C(=O)N(c1ccccc1)C2 | 8.85%
42 | COC(=O)Cn1c(=O)nc2n1C(=O)N(c1cccc(C)c1)C2 | -7.13%
43 | COC(=O)Cn1c(=O)nc2n1C(=O)N(c1ccc(F)cc1)C2 | -12.5%
44 | CN1CCN(C(=O)Cn2ccc3c(Cl)cccc32)CC1 | -12.2%
45 | Cc1cnc(NC(=O)c2csc(NCC(C)C)n2)s1 | 9.3%
46 | CC(C)n1[nH]c(=O)c2c1NC(=O)CC2c1cccc2cccnc12 (configuration not stated) | 15.8%

Row | Compound | cytotoxicity at 70.5 h
47 | CC(C)n1[nH]c(=O)c2c1NC(=O)CC2c1ccncc1 (configuration not stated) | -11.3%
48 | CC(C)n1[nH]c(=O)c2c1NC(=O)CC2c1ccc(C#N)cc1 (configuration not stated) | 18.7%
49 | CSc1ccc(C2CC(=O)Nc3c2c(=O)[nH]n3C(C)C)cc1 (configuration not stated) | -9.28%
50 | COc1cccc(C2CC(=O)Nc3c2cnn3C(C)(C)C)c1 (configuration not stated) | -6.1%
51 | CC(C)(C)n1ncc2c1NC(=O)CC2c1ccc(C(=O)O)cc1 (configuration not stated) | -13.3%
52 | CC(C)(C)n1ncc2c1NC(=O)CC2c1ccc(C#N)cc1 (configuration not stated) | -10%
53 | CC(C)CNC(=O)CSC1CCc2ccccc2NC1=O (configuration not stated) | -15.8%
54 | CC(C)NC(=O)C(C)NC(=O)N1CCN(c2ccc(Cl)cc2)CC1 (configuration not stated) | 19%
55 | O=C1CC(c2cccs2)c2sc(C(=O)O)c(-c3ccccc3)c2N1 (configuration not stated) | -9.97%
56 | O=C(NCc1ccc(Cl)cc1)C1CCCN(c2ccc3nncn3n2)C1 (configuration not stated) | -9.54%
57 | COC(=O)Cn1c(=O)nc2n1C(=O)N(c1ccc(Br)cc1)C2 | 10.9%
58 | Cc1[nH]/c(=N\C(=O)c2csc(NC3CCCC3)n2)sc1C | 31.2%
59 | Cc1cs/c(=N/C(=O)c2csc(NCC(C)C)n2)[nH]1 | -4.1%
60 | CC(C)(C)n1ncc2c1NC(=O)CC2c1c(F)cccc1F (configuration not stated) | -14.5%
61 | COc1cccc2c3c(c(=O)[nH]c12)CCO3 | 3.58%
62 | COc1cccc2c3c(c(=O)n(C)c12)CCC(C)(C)O3 | -10.4%
63 | COc1cc(OCC(=O)NCCc2ccccc2)cc(OC)c1OC | -5.97%
64 | O=c1[nH]cnc2[nH]c(N3CCNCC3)nc12 | -2.26%
65 | Cc1ccccc1-n1c(O)cc(C)c(C#N)c1=O | -1.83%
66 | Cc1ccc(-n2c(O)cc(C)c(C#N)c2=O)c(C)c1 | -1.45%
67 | CCN(CC)S(=O)(=O)c1cnccc1N1CCN(C(C)C)CC1 | 7.88%
68 | CCCNS(=O)(=O)c1cnccc1N1CCN(C(C)C)CC1 | 7.02%
69 | Cn1cc(I)c(C(=O)NC2CCCCC2)n1 | 28.2%

Row | Compound | cytotoxicity at 70.5 h
70 | CCn1cc(C(=O)Nc2cc(C(=O)OC)ccc2C(=O)OC)cn1 | -9%
71 | CCn1cc(C(=O)Nc2cc(C)ccc2C)cn1 | 17%
72 | O=c1c2cn[nH]c2nc(SCCN2CCCC2)n1-c1ccccc1 | -6.58%
73 | CC(=O)c1c(C)nn(S(=O)(=O)c2ccc(C)cc2)c1C | 0.514%
74 | CCCOC1Sc2nnc(C)n2N=C1c1ccccc1 (configuration not stated) | -9.6%
75 | CCn1c(O)c(C(C)=O)c2cc(C)ccc21 | -6.19%
76 | CC(=O)c1c(O)n(C)c2ccc(F)cc12 | -4.46%
77 | CCc1nn(-c2cc(Oc3cccc(C)c3)nc(C)n2)c(N)c1C#N | -8.17%
78 | CCOC(=O)c1cnn(-c2cc(Oc3cc(C)ccc3C)ncn2)c1N | -0.831%
79 | O=C(Cn1ccnc1)N1CC[C@H](Oc2cccc(F)c2)[C@@H](O)CC1 | 13%
80 | Cc1nccn1[C@@H]1CC[C@@H](N(C)S(=O)(=O)c2ccccc2F)[C@H]1O | -3.2%
81 | COCC(=O)N1CCC(c2c(C(=O)N(C)C)sc3ncccc23)C1 (configuration not stated) | 27.1%
82 | CO[C@@H]1CC[C@@H](NC(=O)CCc2ccc(Cl)cc2)[C@H]1O | -7.81%
83 | CC(=O)N1CCCC1(C(=O)N1CCCC1)c1cnccn1 (configuration not stated) | 0.591%
84 | COc1ccccc1CN1CCC(c2nccc(C)n2)C1 (configuration not stated) | 27.1%
85 | Cc1ncoc1C(=O)N1CCCC(c2ccc3c(N)nn(C)c3n2)C1 (configuration not stated) | -4.28%
86 | CN1CCC(Cc2cnc(CNC(=O)Cc3cccc(F)c3)cn2)CC1 | -2.96%
87 | Cc1occc1C(=O)N1CCCC(C2=Nc3ccccc3S(=O)(=O)N2)C1 (configuration not stated) | -5.45%
88 | Cn1cnc(S(=O)(=O)N2CCCC2c2ccnc3nccn23)c1 (configuration not stated) | 0.418%
89 | O=C(c1cccc(-n2cnnc2)c1)N1C[C@@H](O)[C@H](N2CCOCC2)C1 | -1.32%
90 | O=C(C1CC1)N1CCCC(C2=Nc3ccccc3S(=O)(=O)N2)C1 (configuration not stated) | -4.52%
91 | CC(C)c1cc(C(=O)NCCc2nc(-c3ccncc3)n[nH]2)[nH]n1 | -5.69%
92 | O=C(Cc1ccccc1F)N1CCC[C@@H]1Cn1c(=O)oc2ccccc21 | 6.08%

Row | Compound | cytotoxicity at 70.5 h
93 | CN(CCc1ccccc1)Cc1c(C2CC2)[nH]c2ncccc12 | 2.38%
94 | CC(=O)N1CCC(Cc2cccc(-c3ccnn3C)n2)CC1 | -8.71%
95 | O=C(CCn1ccnc1)N1CCC(c2nnc(-c3ccccn3)o2)CC1 | -3.21%
96 | Cc1cc(C)nc(N2CCCC(C)(c3[nH]ncc3C(=O)N(C)C)C2)n1 (configuration not stated) | -4.44%
97 | COCCNc1ccc(CC2CCCN(C3CCCC3)C2)nn1 (configuration not stated) | -4.76%
98 | CC(C)(C)C(=O)N1CCC(c2cnc(-c3cn[nH]c3)cn2)CC1 | -4.2%
99 | CS(=O)(=O)N1CCN(C(=O)c2cncs2)CC(C(N)=O)C1 (configuration not stated) | -5.12%
100 | CN(C(=O)c1ccc(C#N)cc1)c1nnc(C2CCOC2)s1 (configuration not stated) | -6.28%
101 | COc1cccc([C@@]2(O)CC[C@@H]3CN(C(=O)c4ccn(C)n4)C[C@@H]32)c1 | -6.49%
102 | CCC(CN1CCCC1)n1cncc1-c1cnn(-c2ccc(F)cc2)c1 (configuration not stated) | -5.95%
103 | CCC(CN1CCCC1)n1cncc1-c1cnn(Cc2ccccc2)c1 (configuration not stated) | -4.48%
104 | CC(=O)Nc1ccc(Oc2cc(C)nc(C3CCNCC3)c2)cc1 | -15.5%
105 | CC(Cn1cncc1-c1cnn(Cc2ccccc2)c1)N1CCCCC1 (configuration not stated) | -1.65%
106 | Fc1cnc(N2CC[C@@H]3CN(Cc4ccncc4)CCO[C@@H]3C2)nc1 | 7.83%
107 | Cc1[nH]c2c(C)cccc2c1CC(=O)N(C)CCN(C)C | -8.69%
108 | Cn1cc(CN2CCOC(c3cccc(-c4cncnc4)n3)C2)cn1 (configuration not stated) | -5.7%
109 | Cn1nccc1CN1CCOC(c2cccc(-c3cncnc3)n2)C1 (configuration not stated) | 14.3%
110 | Cc1ncc(C(=O)N2CCOC(C(=O)N3CCCCCC3)C2)c(C)n1 (configuration not stated) | 1.17%
111 | NCc1ccccc1Sc1ccc(O)cc1 | -8.8%
112 | CC(N)Cc1ccccc1Sc1ccc(O)cc1 (configuration not stated) | -7.28%

Reference: ChEMBL document CHEMBL3507680, “University of Dundee, Gates Library screen for HepG2 cell viability”
